Assay results reported in patent US20020188323A1, “Methods, systems and devices for in vivo electrochemical production of therapeutic agents” (Remon Medical Technologies Ltd., priority 2001, published 2002).

What was measured:
[1] = test system: P388D1 murine macrophage-like tumor cells; settings: cited from earlier work
viruses and bacteria = settings: cited from earlier work
cells = settings: cited from earlier work
human endothelial cells [2] = assay: Effect of hypochlorite on human endothelial cells (Vissers et al.); assay type: cell-based
Description: Hypochlorite and hydrogen peroxide are strong oxidants and are extensively used as antiseptic agents. Hydrogen peroxide is routinely used as an antiseptic agent in cases of external wounds. Hypochlorite is used as an antiseptic agent during, for example, dental root treatment. Both hypochlorous acid and hydrogen peroxide are well-known disinfectants. Hypochlorite is widely used for treatment of drinking water and as a bactericide. Both hypochlorite and hydrogen peroxide have cytotoxic activity at concentrations of several ppm. Vissers et al. tested the effect of hypochlorite on cells. They noticed a necrosis threshold of 20-40 nmole HClO per 1.2×10^5 cells, which translates approximately into 2 ppm concentration. Transient growth (proliferation) inhibition occurred at lower concentrations of 5 nmole, or about 0.2-0.3 ppm. See, “Hypochlorous acid causes caspase activation and apoptosis or growth arrest in human endothelial cells”, by Margret C. M. Vissers, Juliet M. Pullar and Mark B. Hampton, Biochem. J. (1999) vol. 344, pp. 443-449. Schraufenstatter et al. discuss the effect of hypochlorite on P388D1 murine macrophage-like tumor cells in mice. They show cell damage at 0.5-1 ppm hypochlorite and cell death from about 4 ppm hypochlorite and up. […]

human endothelial cells [3] = settings: cited from earlier work
Dissociation of HClO = assay type: physicochemical; settings: −log Ka
Description: The dissociation constant of HClO or, in other words, the equilibrium constant of the reaction HClO→H^++ClO^−[6] is 3.7×10^−8.
Thus, the pKa of the reaction (i.e., −logka) equals 7.4. It is well known that when the pH of a solution equals the pKa of an acid dissolved therein, at all times, half of the acid molecules are dissociated. Since the blood pH value equals 7.4 half of the HClO is dissociated to H^+ and ClO^−.

OCl [hypochlorite, hypochlorous acid]
concentration causing cell damage [1]: 0.5-1 ppm
concentration causing cell death [1]: ≥ 4 ppm
level required to kill all viruses and bacteria (viruses and bacteria): 40 ppm
concentration with cytotoxic activity (cells): several
transient growth (proliferation) inhibition as concentration (human endothelial cells [2]; equivalent of 5 nmole): 0.2-0.3 ppm
necrosis threshold as concentration (human endothelial cells [2]; translated from nmole per 1.2×10^5 cells): ~2 ppm
necrosis threshold (human endothelial cells [3]): 20-40 nmole HClO per 1.2×10^5 cells
transient growth (proliferation) inhibition (human endothelial cells [3]; lower concentrations than necrosis): 5 nmol
pKa (Dissociation of HClO): 7.4

OO [hydrogen peroxide]
concentration with cytotoxic activity (cells): several
